Laboratory results published in EPA's ToxValDB 9.5 (doi:10.2903/j.efsa.2010.1897).
≈ marks a conversion by molar mass, not a printed value. Where “and” joins values, the source holds several entries; their conditions need not be identical. Identical values can stand only once.

Key:
[1] = tested on: Anas platyrhynchos; settings: for LC50: short-term, feed
[2] = tested on: Colinus virginianus; settings: for LC50: diet
[3] = tested on: Rattus norvegicus
[4] = tested on: Typhlodromus pyri; experiment: LR50; higher = less toxic; settings: not reported; mortality
[5] = tested on: Mus musculus
[6] = tested on: Apis mellifera; settings: acute; duration: 48 hours; oral; unspecified; mortality
[7] = tested on: Coturnix japonica; settings: acute; oral; mortality
[8] = tested on: Folsomia candida; settings: chronic/long-term; duration: 28 days; reproduction
[9] = tested on: Daphnia magna; settings: chronic/long-term; duration: 21 days
[10] = tested on: Cyprinodon variegatus; settings: acute; duration: 96 hours; mortality
[11] = tested on: Oncorhynchus mykiss
[12] = tested on: Tagia sp.; settings: acute; duration: 14 days; mortality

`NC(Cc1ncn[nH]1)C(=O)O` (stereo not drawn) [1,2,4-Triazole-3-alanine] showed an LC50 ([1]; oral, mortality) greater than 1340 mg/kg-day, an LC50 ([2]; acute, oral, mortality) greater than 1400 mg/kg-day and an NOAEL ([3]; developmental, development) of 100 mg/kg-day.

`CC(C1CC1)C(O)(Cn1cncn1)c1ccc(Cl)cc1` (stereo not drawn) [Cyproconazole] showed an LR50 [4] of 29.4 g/ha, an LD50 ([5]; acute, oral, mortality) of 200 mg/kg-day and an NOAEL ([5]; chronic, duration: 18 months, body weight) of 1.84 mg/kg-day. The LD50 [6] was greater than 100 µg/piece, the LD50 ([1]; acute, oral, unspecified, mortality) was greater than 2000 mg/kg-day and the NOEC ([1]; reproductive) was 1.4 mg/kg-day and 2.4 mg/kg-day. The LC50 ([1]; oral, mortality) was 151 mg/kg-day, the LD50 [7] was 130 mg/kg-day and the NOEC [8] was 55.8 mg/kg. For the same compound, the NOEC [9] was 0.023 mg/L, the LC50 ([2]; acute, oral, mortality) was 478 mg/kg-day and 585 mg/kg-day and the LD50 ([2]; acute, oral, mortality) was 94 mg/kg-day and 183 mg/kg-day. The NOEC ([2]; reproduction developmental) was 6.6 mg/kg-day, the LC50 [10] was 21 µg/mL (≈ 72 µM) and the LC50 ([11]; acute, duration: 96 hours, mortality) was 19 µg/mL (≈ 65.1 µM). It also gave an NOEC ([11]; chronic/long-term, duration: 89 days, growth) of 0.16 mg/L, an NOAEL ([3]; chronic, duration: 2 years, M/F, body weight) of 2.22 mg/kg-day and an NOAEL ([3]; reproduction developmental, F, reproduction) of 1.7 mg/kg-day. It also gave an NOAEL ([3]; reproduction developmental, M, organ weight) of 1.4 mg/kg-day and an LC50 [12] greater than 335 mg/kg.
